From ChEMBL document CHEMBL1201862, “PubChem BioAssay data set” (2004) come the findings set out here.

Test systems include MCF7; RXF 393; SW-620; DU-145; IGROV-1; OVCAR-8; SK-OV-3; HCT-15; TK-10; M14; A549; HOP-62; CCRF-CEM; UO-31; Hs-578T; HOP-92; CAKI-1; A498; NCI-H226.
Common to all, as to assay: DTP human tumour cell line panel, 48 h

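Each compound was tested at five concentrations against cells in 96-well plates for 48 hours. Abbreviation: GI50, concentration required for 50% inhibition of growth.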 Active and inactive are the calls of the source. Rule as the data show it: active = GI50 up to about 1.1 µM and inactive = higher. Some results are limits rather than exact numbers.

Take `Cc1ccc(S(=O)(=O)NC(=O)NC(Cc2ccccc2)C(=O)O)cc1` (configuration not stated): the GI50 in the experiment with MCF7, in the experiment on RXF 393, with SW-620, in the experiment with DU-145, in the experiment on IGROV-1 and in the experiment on OVCAR-8 was > 100 µM (inactive) in each case. For the same molecule, the GI50 was > 100 µM (inactive) with SK-OV-3; > 100 µM in the experiment with HCT-15; > 100 µM (inactive) with TK-10; > 100 µM (inactive) in the experiment with M14; > 100 µM (inactive) with A549; > 100 µM (inactive) with HOP-62. In addition, the GI50 with CCRF-CEM, in the experiment on UO-31, with Hs-578T and in the experiment on HOP-92 was > 100 µM (inactive) each time.
Regarding `C/C(CC(=O)Nc1ccc(Cl)c(Cl)c1)=N/NC(=O)C[n+]1ccccc1`, the GI50 with RXF 393 was > 100 µM (inactive); in the experiment with CAKI-1 it was > 100 µM (inactive); in the experiment with IGROV-1 it was > 100 µM (inactive); in the experiment with OVCAR-8, > 100 µM (inactive); in the experiment with SK-OV-3, > 100 µM (inactive); in the experiment with HCT-15 it was 30.5 µM. Also, the GI50 in the experiment with TK-10, with M14, with A549, in the experiment on A498, in the experiment with HOP-62 and with NCI-H226 was > 100 µM (inactive) in each case. Further, the GI50 in the experiment with CCRF-CEM is 85.3 µM (inactive); in the experiment on UO-31 it was > 100 µM (inactive); in the experiment with HOP-92, > 100 µM (inactive).
On to `CC(O)CNC(=O)Nc1c(C(F)(F)F)cc(-c2ccccc2)[nH]c1=O` (configuration not stated), for which the GI50 in the experiment with MCF7, in the experiment with RXF 393, in the experiment with SW-620, in the experiment with CAKI-1, in the experiment on DU-145 and with IGROV-1 was > 100 µM (inactive) in each case. For the same molecule, the GI50 was > 100 µM (inactive) in the experiment on OVCAR-8; > 100 µM (inactive) in the experiment with SK-OV-3; > 100 µM with HCT-15; > 100 µM (inactive) in the experiment on TK-10; > 100 µM (inactive) with M14; > 100 µM (inactive) in the experiment on A549. Besides, the GI50 in the experiment with A498 was > 100 µM (inactive); with HOP-62, > 100 µM (inactive); with NCI-H226, > 100 µM (inactive); with CCRF-CEM it was 13.8 µM (inactive); with UO-31, > 100 µM (inactive); in the experiment on Hs-578T, > 100 µM (inactive). In the experiment with HOP-92, the GI50 was > 100 µM (inactive).
As for `Cc1cc(Cl)ccc1N1C(=O)C(=O)C(c2nc3ccccc3o2)C(=O)C1=O`, the GI50 was > 100 µM (inactive) in the experiment on RXF 393; 43.7 µM (inactive) in the experiment with SW-620; > 100 µM (inactive) in the experiment with CAKI-1; 35.6 µM (inactive) in the experiment on IGROV-1; > 100 µM (inactive) in the experiment with OVCAR-8; > 100 µM (inactive) with SK-OV-3. Further, the GI50 was > 100 µM with HCT-15; > 100 µM (inactive) in the experiment with TK-10; 67 µM (inactive) with M14; > 100 µM (inactive) in the experiment on A549; > 100 µM (inactive) in the experiment with A498; > 100 µM (inactive) in the experiment on HOP-62. Also, the GI50 is > 100 µM (inactive) in the experiment on NCI-H226, 23.7 µM (inactive) with CCRF-CEM, > 100 µM (inactive) with UO-31 and 58.7 µM (inactive) with HOP-92.
With `Cc1ccc2c(C3Cc4ccccc4N3C(=O)/C=C\C(=O)O)c(C)[nH]c2c1` (configuration not stated), the GI50 is 29.9 µM (inactive) with RXF 393; 33.1 µM (inactive) with SW-620; 46.5 µM (inactive) in the experiment on CAKI-1; 41 µM (inactive) with IGROV-1; 30.6 µM (inactive) in the experiment on OVCAR-8; > 100 µM (inactive) in the experiment on SK-OV-3. In addition, the GI50 with HCT-15 is 26.9 µM; in the experiment on TK-10 it was 56.1 µM (inactive); in the experiment on M14 it was 44.4 µM (inactive); in the experiment with A549 it was > 100 µM (inactive); with A498 it was 65.8 µM (inactive); with HOP-62 it was 30.1 µM (inactive). The GI50 was > 100 µM (inactive) in the experiment on NCI-H226, 23.5 µM (inactive) with CCRF-CEM, 44.3 µM (inactive) in the experiment on UO-31 and 30.8 µM (inactive) in the experiment on HOP-92.
For `C[N+](C)(C)CC(=O)N/N=C(/CC(=O)CC(C1=C(O)c2ccccc2OC1)c1ccccc1)C(=O)Nc1cccc(Cl)c1` (configuration not stated), the GI50 in the experiment on MCF7, in the experiment on RXF 393, in the experiment on SW-620, with CAKI-1, with DU-145 and in the experiment on IGROV-1 was > 100 µM (inactive) in each case. Further, the GI50 was > 100 µM (inactive) in the experiment on OVCAR-8; > 100 µM (inactive) with SK-OV-3; > 100 µM in the experiment with HCT-15; > 100 µM (inactive) in the experiment on TK-10; > 100 µM (inactive) in the experiment with M14; > 100 µM (inactive) with A549. For the same molecule, the GI50 in the experiment on A498, in the experiment on HOP-62, in the experiment with NCI-H226, in the experiment with CCRF-CEM, in the experiment on UO-31 and in the experiment with HOP-92 was > 100 µM (inactive) each time.
For the molecule `COC(=O)N/N=C(/Cc1occc(=O)c1O)C(=O)Nc1ccc([N+](=O)[O-])cc1[N+](=O)[O-]`, the GI50 in the experiment with RXF 393, with SW-620, with CAKI-1, in the experiment on IGROV-1, with OVCAR-8 and in the experiment on SK-OV-3 was > 100 µM (inactive) in each case. The GI50 with HCT-15 was > 100 µM; with TK-10, > 100 µM (inactive); in the experiment on M14, > 100 µM (inactive); in the experiment on A549 it was > 100 µM (inactive); in the experiment on A498 it was > 100 µM (inactive); with HOP-62, > 100 µM (inactive). Besides, the GI50 with NCI-H226, with CCRF-CEM, in the experiment on UO-31 and in the experiment with HOP-92 was > 100 µM (inactive) each time.
Regarding `CCN(CC)c1ccc(/N=N/c2ccc([N+](=O)[O-])cc2OC(=O)/C=C/c2ccccc2)c(OC(=O)/C=C/c2ccccc2)c1`, the GI50 in the experiment on RXF 393 is 42.9 µM (inactive); in the experiment with SW-620, 7.57 µM (inactive); in the experiment on CAKI-1, 84.1 µM (inactive); with IGROV-1, 18.5 µM (inactive); with OVCAR-8 it was 6.27 µM (inactive); in the experiment with SK-OV-3, 4.16 µM (inactive). For the same molecule, the GI50 is 19.5 µM in the experiment with HCT-15; 27.3 µM (inactive) in the experiment on TK-10; 12.7 µM (inactive) with M14; 8.2 µM (inactive) with A549; > 26.9 µM (inactive) in the experiment with A498; 2.12 µM (inactive) in the experiment on HOP-62. Moreover, the GI50 in the experiment with NCI-H226 is 1.44 µM (inactive); in the experiment with CCRF-CEM, 3.02 µM (inactive); in the experiment with UO-31 it was 4.45 µM (inactive); in the experiment with HOP-92, > 100 µM (inactive).
With `COc1ccc(-c2cc(=O)c3ccccc3o2)cc1N`, the GI50 in the experiment with RXF 393 was 23.6 µM (inactive); in the experiment with SW-620, 38.4 µM (inactive); in the experiment with CAKI-1, 18.7 µM (inactive); with IGROV-1 it was 55.5 µM (inactive); in the experiment on OVCAR-8, 36.1 µM (inactive); with SK-OV-3, > 100 µM (inactive). For the same molecule, the GI50 with HCT-15 is 46.6 µM; in the experiment with TK-10, > 100 µM (inactive); with M14, 27.1 µM (inactive); in the experiment on A549, 49.9 µM (inactive); with A498, 37.4 µM (inactive); in the experiment on HOP-62, 20.5 µM (inactive). In addition, the GI50 in the experiment on NCI-H226 was > 100 µM (inactive); with CCRF-CEM it was 28.6 µM (inactive); in the experiment on UO-31 it was 19.9 µM (inactive); in the experiment on HOP-92, 76.2 µM (inactive).
Consider `CC(C)[Si](OC1=C(c2ccccc2)C(NC(=O)/C=C/c2ccc([N+](=O)[O-])cc2)CCC1)(C(C)C)C(C)C` (configuration not stated), for which the GI50 in the experiment with MCF7, with RXF 393, in the experiment on SW-620, in the experiment on DU-145, in the experiment with IGROV-1 and in the experiment on OVCAR-8 was > 100 µM (inactive) each time. The GI50 is > 100 µM (inactive) in the experiment on SK-OV-3; > 100 µM in the experiment on HCT-15; > 100 µM (inactive) in the experiment with TK-10; > 100 µM (inactive) with M14; > 100 µM (inactive) in the experiment on A549; > 100 µM (inactive) with A498. The GI50 in the experiment with HOP-62, with NCI-H226, in the experiment on CCRF-CEM, in the experiment on UO-31, in the experiment with Hs-578T and in the experiment with HOP-92 was > 100 µM (inactive) throughout.
As to `Cc1ccc(NC(=O)CCc2nnc3s/c(=C\c4cccc([N+](=O)[O-])c4)c(=O)n23)cc1`, the GI50 was > 100 µM (inactive) in the experiment with RXF 393; 19.3 µM (inactive) in the experiment with SW-620; > 100 µM (inactive) in the experiment with CAKI-1; > 100 µM (inactive) with IGROV-1; > 100 µM (inactive) in the experiment on OVCAR-8; > 100 µM (inactive) in the experiment on SK-OV-3. Besides, the GI50 with HCT-15 was > 100 µM; in the experiment with TK-10, > 100 µM (inactive); in the experiment with M14 it was > 100 µM (inactive); in the experiment on A549, > 100 µM (inactive); in the experiment with A498, > 100 µM (inactive); with HOP-62, 16.7 µM (inactive). Further, the GI50 with NCI-H226 is > 100 µM (inactive); with CCRF-CEM, 66.1 µM (inactive); in the experiment on UO-31 it was > 100 µM (inactive); in the experiment with HOP-92 it was 85.3 µM (inactive).
With `CC(C)[Si](OCC1CC(C[C@H]2CC(C[C@H]3C[C@@H](CO[Si](C(C)C)(C(C)C)C(C)C)OC(C)(C)O3)OC(C)(C)O2)OC(C)(C)O1)(C(C)C)C(C)C` (some centres not stated), the GI50 with RXF 393, in the experiment on SW-620, in the experiment with CAKI-1, in the experiment on IGROV-1, in the experiment with OVCAR-8 and in the experiment on SK-OV-3 was > 100 µM (inactive) throughout. For the same molecule, the GI50 in the experiment with TK-10, in the experiment with M14, in the experiment with A549, in the experiment with A498, with HOP-62 and with NCI-H226 was > 100 µM (inactive) in each case. Besides, the GI50 in the experiment on CCRF-CEM, with UO-31 and in the experiment with HOP-92 was > 100 µM (inactive) throughout.
